# Read-outs that look alike come from different tables or passages of the source.
# Columns and labels:
# Format in all cases: in vivo
# [1] = test system: Digitaria sanguinalis (DIGSA); assay: Pre-emergence herbicidal action against DIGSA
# In short: (§1)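 Herbicide applied to soil before seedling emergence, at 600 l/ha spray volume with 0.5% additive and rates up to 320 g/ha. Evaluation: visual percentage effect, about 3 weeks later, greenhouse-grown pots compared with untreated ones.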
# [2] = test system: Brassica napus (BRSNW); settings: crop plant compatibility, in comparison to untreated controls
# In short: (§2)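 Scoring: visual, % of untreated control, about 3 weeks after a pre-emergence application to the soil surface. Application used WP or EC formulations diluted in water with 0.5% additive at 600 l/ha; dosage levels are marked by suffixes a, b and c.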
# [3] = test system: Glycine max (GLXMA); settings: crop plant compatibility; for Pre-emergence action against GLXMA in %: 80 g/ha, in comparison to untreated controls
# In short: as §2
# [4] = test system: Oryza sativa (ORYSA); settings: crop plant compatibility; for Pre-emergence action against ORYSA in %: in comparison to untreated controls
# In short: as §2
# [5] = test system: Triticum aestivum (TRZAS); settings: crop plant compatibility; for Pre-emergence action against TRZAS in %: 80 g/ha, in comparison to untreated controls
# In short: as §2
# [6] = test system: Zea mays (ZEAMX); settings: crop plant compatibility; for Pre-emergence action against ZEAMX in %: in comparison to untreated controls
# In short: as §2
# [7] = test system: Amaranthus retroflexus (AMARE); assay: Post-emergence herbicidal action against AMARE; settings: 320 g/ha, visual rating about 3 weeks after treatment
# In short: (§3)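 Doses of 320 g/ha or lower, suffixes a, b and c marking different dosages, were applied post-emergence at the one-leaf stage in 600 l/ha water with 0.5% additive. Damage was assessed visually after about 3 weeks in the greenhouse.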
# [8] = test system: Verconica persica (VERPE); assay: Post-emergence herbicidal action against VERPE; settings: 320 g/ha, VERPE
# In short: as §3
# [9] = test system: Oryza sativa (ORYSA); settings: crop plant compatibility
# In short: (§4)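 Visual rating (% effect vs. untreated plants; 100% = plant death) made about 3 weeks after treatment. Plants had been sprayed at one-leaf stage, 2–3 weeks post-sowing, with aqueous WP/EC preparations containing 0.5% additive, 600 l/ha water volume; a, b, c mark dose levels.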
# [10] = test system: Triticum aestivum (TRZAS); settings: crop plant compatibility, 80 g/ha, effect vs untreated controls
# In short: as §4
# [11] = test system: Zea mays (ZEAMX); settings: for Post-emergence action against ZEAMX in %: crop plant compatibility, effect vs untreated controls
# In short: as §4
# [12] = test system: Abutilon theophrasti (ABUTH); assay: Pre-emergence herbicidal action against ABUTH; settings: Dosage column 320 g/ha (title prints 3200 g/ha); scored visually after about 3 weeks; 100% = plants have died
# In short: as §1
# [13] = test system: Alopecurus myosuroides (ALOMY); assay: Pre-emergence herbicidal action against ALOMY; settings: scored visually after about 3 weeks, 100% = plants have died
# In short: as §1
# [14] = test system: Amaranthus retroflexus (AMARE); assay: Pre-emergence herbicidal action against AMARE; settings: visual scoring after about 3 weeks vs untreated controls
# In short: as §1
# [15] = test system: Avena fatua (AVEFA); assay: Pre-emergence herbicidal action against AVEFA; settings: 320 g/ha, visual scoring after about 3 weeks vs untreated controls
# In short: as §1
# [16] = test system: Echinochloa crus-galli (ECHCG); assay: Pre-emergence herbicidal action against ECHCG; settings: dosage 320 g/ha
# In short: as §1
# [17] = test system: Lolium rigidum (LOLRI); assay: Pre-emergence herbicidal action against LOLRI; settings: dosage 320 g/ha
# In short: as §1
# [18] = test system: Matricaria inodora (MATIN); assay: Pre-emergence herbicidal action against MATIN
# In short: as §1
# [19] = test system: Polygonum convolvulus (POLCO); assay: Pre-emergence herbicidal action against POLCO; settings: dosage 320 g/ha
# In short: as §1
# [20] = test system: Setaria viridis (SETVI); assay: Pre-emergence herbicidal action against SETVI; settings: dosage 320 g/ha
# In short: as §1
# [21] = test system: Verconica persica (VERPE); assay: Pre-emergence herbicidal action against VERPE; settings: dosage 320 g/ha
# In short: as §1
# [22] = test system: Viola tricolor (VIOTR); assay: Pre-emergence herbicidal action against VIOTR; settings: 320 g/ha, Viola tricolor
# In short: as §1
# [23] = test system: Alopecurus myosuroides (ALOMY); assay: Post-emergence herbicidal action against ALOMY; settings: visual rating about 3 weeks after treatment vs untreated controls (100% = plants have died, 0% = like control plants)
# In short: as §3
# [24] = test system: Avena fatua (AVEFA); assay: Post-emergence herbicidal action against AVEFA; settings: visual rating about 3 weeks after treatment
# In short: as §3
# [25] = test system: Digitaria sanguinalis (DIGSA); assay: Post-emergence herbicidal action against DIGSA; settings: visual rating about 3 weeks after treatment
# In short: as §3
# [26] = test system: Lolium rigidum (LOLRI); assay: Post-emergence herbicidal action against LOLRI; settings: dosage 320 g/ha
# In short: as §3
# [27] = test system: Setaria viridis (SETVI); assay: Post-emergence herbicidal action against SETVI
# In short: as §3
# [28] = test system: Viola tricolor (VIOTR); assay: Post-emergence herbicidal action against VIOTR; settings: 320 g/ha
# In short: as §3
# [29] = 80 g/ha, effect in comparison to untreated controls
# [30] = 20 g/ha, effect vs untreated controls
compound,measurement,setting,value
COC(=O)C=CC(C)NC(=O)COc1nn(-c2ccccn2)c(-c2ccc(F)nc2)c1Br (stereo not drawn) [Example I-345],Pre-emergence action against DIGSA in %,[1]; dosage 320 g/ha,90%
same,Pre-emergence action against BRSNW in %,[2]; 80 g/ha,20%
same,Pre-emergence action against GLXMA in %,[3],0%
same,Pre-emergence action against ORYSA in %,[4]; 80 g/ha,10%
same,Pre-emergence action against ORYSA in %,[4]; 320 g/ha,20%
same,Pre-emergence action against TRZAS in %,[5],10%
same,Pre-emergence action against ZEAMX in %,[6]; 80 g/ha,0%
same,Pre-emergence action against ZEAMX in %,[6]; 320 g/ha,10%
same,Post-emergence action against AMARE in %,[7],80%
same,Post-emergence action against VERPE in %,[8],80%
same,Post-emergence action against ORYSA in %,[9]; [29],20%
same,Post-emergence action against TRZAS in %,[10],10%
same,Post-emergence action against ZEAMX in %,[11]; 80 g/ha,0%
same,Post-emergence action against ZEAMX in %,[11]; 320 g/ha,10%
C[C@@H](Oc1nn(-c2ccc(F)cn2)c(-c2cncc(F)c2)c1Br)C(=O)O [Example I-13],Pre-emergence action against ABUTH,[12],90%
same,Pre-emergence action against ALOMY,[13]; 80 g/ha,90%
same,Pre-emergence action against ALOMY,[13]; 320 g/ha,100%
same,Pre-emergence action against AMARE in %,[14]; 80 g/ha,90%
same,Pre-emergence action against AMARE in %,[14]; 320 g/ha,100%
same,Pre-emergence action against AVEFA in %,[15],90%
same,Pre-emergence action against DIGSA in %,"[1]; 80 g/ha, visual scoring after about 3 weeks vs untreated controls",100%
same,Pre-emergence action against DIGSA in %,[1]; dosage 320 g/ha,100%
same,Pre-emergence action against ECHCG in %,[16],90%
same,Pre-emergence action against LOLRI in %,[17],90%
same,Pre-emergence action against MATIN in %,[18]; dosage 80 g/ha,80%
same,Pre-emergence action against MATIN in %,[18]; dosage 320 g/ha,80%
same,Pre-emergence action against POLCO in %,[19],100%
same,Pre-emergence action against SETVI in %,[20],90%
same,Pre-emergence action against VERPE in %,[21],80%
same,Pre-emergence action against VIOTR in %,[22],90%
same,Pre-emergence action against BRSNW in %,[2]; 20 g/ha,10%
same,Pre-emergence action against BRSNW in %,[2]; 80 g/ha,10%
same,Pre-emergence action against BRSNW in %,[2]; 320 g/ha,20%
same,Pre-emergence action against GLXMA,[3]; [30],10%
same,Pre-emergence action against GLXMA in %,[3],10%
same,Pre-emergence action against ORYSA,[4]; [30],0%
same,Pre-emergence action against ORYSA in %,[4]; 80 g/ha,10%
same,Pre-emergence action against TRZAS,[5]; [30],10%
same,Pre-emergence action against TRZAS in %,[5],20%
same,Pre-emergence action against ZEAMX,[6]; [30],10%
same,Post-emergence action against ALOMY in %,[23]; 80 g/ha,90%
same,Post-emergence action against ALOMY in %,[23]; 320 g/ha,90%
same,Post-emergence action against AVEFA in %,[24]; 80 g/ha,80%
same,Post-emergence action against AVEFA in %,[24]; 320 g/ha,90%
same,Post-emergence action against DIGSA in %,[25]; 80 g/ha,90%
same,Post-emergence action against DIGSA in %,[25]; 320 g/ha,90%
same,Post-emergence action against LOLRI in %,[26],90%
same,Post-emergence action against SETVI in %,[27]; dosage 80 g/ha,80%
same,Post-emergence action against SETVI in %,[27]; dosage 320 g/ha,90%
same,Post-emergence action against VERPE in %,[8],80%
same,Post-emergence action against VIOTR in %,[28],80%
same,Post-emergence action against ORYSA in %,[9]; [30],0%
same,Post-emergence action against ORYSA in %,[9]; [29],10%
same,Post-emergence action against ZEAMX in % (crop plant compatibility),"[11]; 20 g/ha, ZEAMX, effect in comparison to untreated controls",0%

# From patent publication US20240041042A1, “1-(PYRIDYL)-5-AZINYLPYRAZOLE DERIVATIVES, AND THEIR USE FOR CONTROL OF UNDESIRED PLANT GROWTH” (Bayer Aktiengesellschaft, priority 2020, published 2024)
